According to patent publication US4404217A, “3-Indolyl alkylene amino propanols and cardiovascular compositions thereof” (C. M. Industries, priority 1979, dated 1983):
Where two headings read alike, the source gives them in different places.

Key:
[1] = molecular target: T1, β1 receptor (Canis lupus familiaris, UniProt P79148); assay: Displacement of 3H dihydroalprenolol, plasmic membranes of hearts of dogs; assay type: binding, dog; details: for affinity for β1 receptors (heart) versus β2 receptors (lungs): in vitro, compared with lung β2 (A5)
T1 construct: plasmic membranes of hearts of dogs (β1 receptor); from tissue; host or cells: dog heart plasma membranes
T1 sequence (P79148 whole entry): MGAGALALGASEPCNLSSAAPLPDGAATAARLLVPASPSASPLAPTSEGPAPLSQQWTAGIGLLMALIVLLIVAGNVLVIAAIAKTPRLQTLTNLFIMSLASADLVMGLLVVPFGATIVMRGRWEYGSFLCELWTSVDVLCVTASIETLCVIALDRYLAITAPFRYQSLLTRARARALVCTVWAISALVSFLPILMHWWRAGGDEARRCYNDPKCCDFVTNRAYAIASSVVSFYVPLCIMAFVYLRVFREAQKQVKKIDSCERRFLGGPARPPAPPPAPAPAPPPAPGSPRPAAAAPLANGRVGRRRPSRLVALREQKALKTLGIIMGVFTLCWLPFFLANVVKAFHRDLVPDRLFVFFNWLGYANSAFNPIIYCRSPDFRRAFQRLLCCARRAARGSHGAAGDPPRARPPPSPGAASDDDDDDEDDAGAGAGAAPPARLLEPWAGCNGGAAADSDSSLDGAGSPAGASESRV
Method: (§1) The binding tests are effected on suspensions of plasmic membranes coming from various organs. The suspensions of membranes are placed in incubation with the tritiated ligand and various concentrations of products to be tested. After incubation, each test is filtered on GFB(Whatman) filter, the filters are dried and introduced into counting flasks. The measurement of the radioactivity is assessed by scintillation in a liquid medium.
(§2) The tests were made on plasmic membranes of hearts of dogs (β1 receptor) and lungs of rats (β2 receptors), in the presence of ^3 H dihydroalprenolol 4×10^-9 M.

[2] = Cardiac frequency and arterial pressure in the anaesthetized dog after intravenous injection; assay type: in vivo; details: i.v. route, anaesthetised dog
Method: (§3) The dog is anaesthetized using sodium pentobarbital, administered by the IV route at a dose of 30 mg/kg. A cannula placed in the saphenous vein allows the intra-venous injections of the products. The animal is submitted to intubation and is allowed to breathe spontaneously.
(§4) The cardiac frequency and the systemic arterial pressure are studied and the variations of these parameters are observed after intra-venous injection of the product to be tested. Each product is tested with increasing doses.

[3] = tested on: α adrenergic receptors; assay: Antagonism of the effects of noradrenaline (pressure response), anaesthetized dog, IV; assay type: in vivo; details: 50% inhibition of pressure response to noradrenaline
Method: as §3, §4
The antagonism of the products with respect to the vascular effects provoked by the IV administration of noradrenaline on the α adrenergic receptors has been sought. The results presented in Table III are expressed in ID50 : it is the dose (mg/kg) which provokes the inhibition by 50% of the pressure response due to the IV administration of noradrenaline.

[4] = molecular target: T2, β adrenergic receptors (β1) (Canis lupus familiaris, UniProt P79148); assay: Antagonism of the effects of isoprenaline, tachycardia (β1), anaesthetized dog, IV; assay type: in vivo; details: for ED50 / cardioselectivity β1 - β2: dog; for ED50: read-out: ID50 ISOPRENALINE β1; for cardioselectivity β1 - β2: isoprenaline antagonism, β1 versus β2; for cardioselective in vivo (selectively inhibit the cardiac receptors): test with isoprenaline
T2 construct: The dog is anaesthetized using sodium pentobarbital; from tissue; host or cells: whole anaesthetized dog (heart)
T2 sequence (P79148 whole entry): as above

[5] = molecular target: T3, β adrenergic receptors (β2) (Canis lupus familiaris, UniProt P54833); assay: Antagonism of the effects of isoprenaline, hypotension (β2), anaesthetized dog, IV; assay type: in vivo; details: read-out: ID50 ISOPRENALINE β2
T3 construct: The dog is anaesthetized using sodium pentobarbital; from tissue; host or cells: whole anaesthetized dog (vasculature)
T3 sequence (P54833 whole entry): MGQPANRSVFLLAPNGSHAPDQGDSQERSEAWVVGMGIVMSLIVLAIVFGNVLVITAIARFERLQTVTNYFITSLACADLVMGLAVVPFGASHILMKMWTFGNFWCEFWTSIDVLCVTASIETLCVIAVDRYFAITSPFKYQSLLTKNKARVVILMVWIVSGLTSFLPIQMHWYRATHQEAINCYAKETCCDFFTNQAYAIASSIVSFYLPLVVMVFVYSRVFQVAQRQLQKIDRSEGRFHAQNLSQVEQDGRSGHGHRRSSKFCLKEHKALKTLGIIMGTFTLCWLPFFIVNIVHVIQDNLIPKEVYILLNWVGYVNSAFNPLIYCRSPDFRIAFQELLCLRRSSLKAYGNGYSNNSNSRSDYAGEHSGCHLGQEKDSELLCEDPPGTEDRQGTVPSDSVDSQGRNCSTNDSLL
Method: as §3, §4
The antagonism of the products with respect to the β stimulant cardio-vascular effects of isoprenaline on the β adrenergic receptors has been sought. […] The last column indicates the cardioselectivity (β1 >β2) or a low cardioselectivity β1 ≥β2, or no cardioselectivity β1 <β2 and β1 =β2.

[6] = molecular target: T4, β2 receptors (Rattus norvegicus, UniProt P10608); assay: Displacement of 3H dihydroalprenolol, plasmic membranes of lungs of rats; assay type: binding
T4 construct: lungs of rats (β2 receptors); from tissue; host or cells: rat lung plasma membranes
T4 sequence (P10608 whole entry): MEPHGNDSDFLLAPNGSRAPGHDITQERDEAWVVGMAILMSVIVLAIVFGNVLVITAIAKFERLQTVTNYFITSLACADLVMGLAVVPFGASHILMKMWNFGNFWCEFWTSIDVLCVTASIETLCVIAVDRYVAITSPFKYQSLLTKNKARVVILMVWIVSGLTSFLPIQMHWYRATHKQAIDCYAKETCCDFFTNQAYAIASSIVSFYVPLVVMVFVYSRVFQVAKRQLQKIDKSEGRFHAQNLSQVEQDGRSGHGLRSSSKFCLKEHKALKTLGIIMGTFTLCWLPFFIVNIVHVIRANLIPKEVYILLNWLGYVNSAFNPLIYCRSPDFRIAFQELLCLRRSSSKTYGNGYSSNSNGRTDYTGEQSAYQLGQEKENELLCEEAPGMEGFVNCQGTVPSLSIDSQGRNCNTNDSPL
Method: as §1, §2

[7] = tested on: α1 receptor; assay: Displacement of 3H WB 4101, plasmic membranes of rat brains; assay type: binding; details: for affinity for the receptor with WB 4101 (α1): in vitro; for EC50: read-out: EC50 of DISPLACEMENT of 3H WB 4101, rat brain membranes, 3H WB4101 0.2×10^-9 M
Method: as §1
(§5) The tests were made on plasmic membranes of rat brains, in the presence of ^3 H clonidine 1.2×10^-9 M (α2 receptor) and of ^3 H WB4101 (N-[2-(2.6dimethoxyphenoxy)ethyl]1.4benzodioxane-2-methylamine), 0.2×10^-9 M (α1 receptor).

[8] = molecular target: T5, α2 receptor (Rattus norvegicus, UniProt P22909); assay: Displacement of 3H clonidine, plasmic membranes of rat brains; assay type: binding; details: for affinity for the receptor with clonidine (α2): in vitro
T5 construct: plasmic membranes of rat brains; from tissue; host or cells: rat brain plasma membranes
T5 sequence (P22909 1-465): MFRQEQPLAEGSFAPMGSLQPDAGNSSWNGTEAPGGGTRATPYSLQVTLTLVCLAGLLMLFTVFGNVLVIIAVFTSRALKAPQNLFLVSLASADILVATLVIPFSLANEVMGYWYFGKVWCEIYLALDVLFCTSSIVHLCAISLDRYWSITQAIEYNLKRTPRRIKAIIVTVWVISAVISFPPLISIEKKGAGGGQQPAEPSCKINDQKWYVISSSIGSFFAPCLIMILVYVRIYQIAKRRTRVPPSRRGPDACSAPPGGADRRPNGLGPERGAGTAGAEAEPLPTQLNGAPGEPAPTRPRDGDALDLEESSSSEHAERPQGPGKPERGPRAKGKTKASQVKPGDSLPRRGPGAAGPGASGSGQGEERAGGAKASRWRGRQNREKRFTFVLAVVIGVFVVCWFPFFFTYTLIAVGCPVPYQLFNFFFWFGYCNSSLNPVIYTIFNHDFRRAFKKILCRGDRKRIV
Method: as §1, §5

[9] = tested on: platelet aggregation; assay: Anti-aggregating activity, BORN technique, plasma rich in platelets, ADP; assay type: cell-based, human; details: human platelet-rich plasma; for IC50: ADP, range over all products tested, read-out: concentration for inhibiting by 50% the maximum rate of aggregation
Method: The anti-aggregating activity of the CM 7743, 7744, 7824, 7854, 7859 and 7874 has been studied according to the BORN technique on plasma rich in platelets of human origin. ADP has been used as indicator of platelet aggregation. […] The required concentration for inhibiting by 50% the maximum rate of aggregation varies from 45 to 100 μM.

[10] = dog heart membranes, 3H dihydroalprenolol 4×10^-9 M
[11] = IV, 50% inhibition of isoprenaline tachycardia
[12] = IV, 50% inhibition of isoprenaline hypotension
[13] = rat lung membranes, 3H dihydroalprenolol 4×10^-9 M
[14] = rat brain membranes, 3H clonidine 1.2×10^-9 M

Row | EC50 [1, 10] [µM] | ED50 [4, 11] [mg/kg] | ED50 [5, 12] [mg/kg] | EC50 [6, 13] [µM] | SMILES | reduction in the peripheral arterial pressure [2] | ID50 NORADRENALINE α [3] [mg/kg] | cardioselectivity β1 - β2 ([4]; IV) | EC50 [7] [µM] | EC50 [1] [µM] | affinity for the receptor with clonidine (α2) [8] | ED50 ([4]; iv) [mg/kg] | cardioselective in vivo (selectively inhibit the cardiac receptors) [4] | EC50 [6] [µM] | also measured
1 | 0.051 | 0.1 to 0.3 | 0.3 to 1 | 0.064 | Cc1ccccc1OC[C@@H](O)CN[C@H](CO)Cc1c[nH]c2ccccc12 [compound 7898] | reduction in the peripheral arterial pressure | > 3 | β1 ≥ β2 (low cardioselectivity β1 ≥β2) | – | – | – | – | – | – | –
2 | – | – | – | – | CC(Cc1c[nH]c2ccccc12)NCC(O)COc1ccccc1[N+](=O)[O-] (stereo not drawn) [compound 7808] | reduction in the peripheral arterial pressure | 0.3 | β1 > β2 (cardioselectivity (β1 >β2)) | 0.32 | 0.0285 | no affinity | 0.3 | cardioselective in vivo | 0.024 | affinity for the receptor with WB 4101 (α1) [7]: have an affinity; EC50 [8]: 0.025 µM; ED50 ([5]; iv): 1 mg/kg
3 | – | – | – | – | CCC(=O)c1ccc(OCC(O)CNC(C)Cc2c[nH]c3ccccc23)c(Cl)c1 (stereo not drawn) [compound 7743] | – | 3 | β1 ≥ β2 (low cardioselectivity β1 ≥β2) | – | – | no affinity | 1 to 3 | – | – | inhibition of the platelet response with respect to the ADP [9]: inhibited the platelet response; IC50 [9]: 45 to 100 µM; ED50 ([5]; iv): ≥ 3 mg/kg
4 | – | – | – | – | Cc1ccccc1OCC(O)CNC(C)Cc1c[nH]c2ccc(F)cc12 (stereo not drawn) [compound 7983] | – | > 0.3 | β1 > β2 (cardioselectivity (β1 >β2)) | 0.6 | 0.019 | – | 0.3 | cardioselective in vivo | 0.047 | affinity for the receptor with WB 4101 (α1) [7]: have an affinity; ED50 ([5]; iv): > 0.3 mg/kg
5 | – | 1 to 3 | > 3 | – | NC(=O)Cc1ccc(OCC(O)CNCCc2c[nH]c3ccccc23)cc1 (stereo not drawn) [compound 7748] | – | 1 | β1 > β2 (cardioselectivity (β1 >β2)) | 0.0027 | – | no affinity | – | cardioselective in vivo | – | affinity for β1 receptors (heart) versus β2 receptors (lungs) [1]: clearly greater affinity for the β1 receptors (heart) than for the β2 receptors (lungs); EC50 [8, 14]: 0.0295 µM
6 | – | 0.3 to 1 | 1 | – | Cc1ccccc1OCC(O)CNC(CO)Cc1c[nH]c2ccccc12 (racemic) [compound 7906] | reduction in the peripheral arterial pressure | > 3 | β1 ≥ β2 (low cardioselectivity β1 ≥β2) | 0.0011 | – | – | – | – | – | EC50 ([1]; read-out: EC50 of DISPLACEMENT of 3H DIHYDROALPRENOLOL, Heart (β1), dog heart membranes, 3H dihydroalprenolol 4×10^-9 M): 0.215 µM; EC50 ([8]; read-out: EC50 of DISPLACEMENT of 3H CLONIDINE, rat brain membranes, 3H clonidine 1.2×10^-9 M): 0.041 µM; EC50 ([6]; read-out: EC50 of DISPLACEMENT of 3H DIHYDROALPRENOLOL, Lung (β2), rat lung membranes, 3H dihydroalprenolol 4×10^-9 M): 0.155 µM
7 | 0.135 | 0.3 | 0.3 to 1 | 0.082 | Cc1ccccc1OC[C@@H](O)CN[C@@H](CO)Cc1c[nH]c2ccccc12 [compound 7899] | reduction in the peripheral arterial pressure | > 3 | β1 ≥ β2 (low cardioselectivity β1 ≥β2) | – | – | – | – | – | – | –
8 | 7.4 | > 3 | > 3 | 3.8 | Cc1ccccc1OC[C@H](O)CN[C@@H](CO)Cc1c[nH]c2ccccc12 [compound 7902] | reduction in the peripheral arterial pressure | > 3 | β1 < β2 (no cardioselectivity β1 <β2) | – | – | – | – | – | – | –
9 | 0.016 | 0.01 to 0.1 | 0.02 to 0.1 | 0.0037 | Cc1ccccc1OCC(O)CNC(C)(C)Cc1c[nH]c2ccccc12 (stereo not drawn) [compound 7854] | – | 0.1 | β1 ≥ β2 (low cardioselectivity β1 ≥β2) | 0.32 | – | – | – | – | – | inhibition of the platelet response with respect to the ADP [9]: inhibited the platelet response; IC50 [9]: 45 to 100 µM; EC50 [8, 14]: 0.006 µM

Row | SMILES | EC50 [1, 10] [µM] | ED50 [4, 11] [mg/kg] | ED50 [5, 12] [mg/kg] | EC50 [6, 13] [µM] | reduction in the peripheral arterial pressure [2] | ID50 NORADRENALINE α [3] [mg/kg] | cardioselectivity β1 - β2 ([4]; IV) | EC50 [7] [µM] | EC50 [1] [µM] | affinity for the receptor with clonidine (α2) [8] | ED50 ([4]; iv) [mg/kg] | cardioselective in vivo (selectively inhibit the cardiac receptors) [4] | EC50 [6] [µM] | also measured
10 | Cc1cccc(OCC(O)CNC(C)Cc2c[nH]c3ccccc23)c1 (stereo not drawn) [compound 7782] | – | – | ≥ 3 | – | – | 0.3 | β1 > β2 (cardioselectivity (β1 >β2)) | – | 0.053 | no affinity | 0.1 to 0.3 | cardioselective in vivo | 0.0615 | EC50 [8, 14]: 0.03 µM
11 | CCCC(=O)Nc1ccc(OCC(O)CNC(C)Cc2c[nH]c3ccccc23)c(C(C)=O)c1 (stereo not drawn) [compound 7798] | 0.55 | – | ≥ 3 | – | – | > 3 | β1 > β2 (cardioselectivity (β1 >β2)) | – | – | – | 1 | cardioselective in vivo | – | affinity for β1 receptors (heart) versus β2 receptors (lungs) [1]: clearly greater affinity for the β1 receptors (heart) than for the β2 receptors (lungs)
12 | CC(Cc1c[nH]c2ccc(F)cc12)NCC(O)COc1ccccc1 (stereo not drawn) [compound 40038] | – | – | > 0.3 | – | reduction in the peripheral arterial pressure | 0.1 | β1 > β2 (cardioselectivity (β1 >β2)) | – | 0.034 | no affinity | 0.1 | cardioselective in vivo | 0.029 | –
13 | CC(Cc1c[nH]c2ccccc12)NCC(O)COc1ccccc1C(=O)c1ccccc1 (stereo not drawn) [compound 7904] | – | – | 0.1 | – | – | > 0.3 | β1 ≥ β2 (low cardioselectivity β1 ≥β2) | – | 0.0079 | – | ≤ 0.1 | – | 0.014 | –
14 | CC(Cc1c[nH]c2ccc(Cl)cc12)NCC(O)COc1ccc(CC(N)=O)cc1 (stereo not drawn) [compound 7859] | 0.625 | – | ≥ 3 | 1 | – | 0.3 to 3 | β1 > β2 (cardioselectivity (β1 >β2)) | 0.0023 | – | no affinity | 0.3 to 1 | cardioselective in vivo | – | inhibition of the platelet response with respect to the ADP [9]: inhibited the platelet response; IC50 [9]: 45 to 100 µM; EC50 [8]: 0.019 µM
